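Results reflect a 48-hour exposure of cells in 96-well plates to compound at five concentrations. The concentration for 50% growth inhibition is given as GI50.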 Activity calls are given as the source filed them. No stated cut-off is given here; in the data, active = GI50 up to about 1.1 µM and inactive = higher.
Legend:
Assay in all cases: NCI-60 cell line screen, 48 h
[1] = system: SK-MEL-28
[2] = system: UO-31
[3] = system: LOX IMVI
[4] = system: MOLT-4
[5] = system: HT-29
[6] = system: UACC-257
[7] = system: HCT-15
[8] = system: CAKI-1
[9] = system: M14
[10] = system: TK-10
[11] = system: SF-295
[12] = system: ACHN
[13] = system: CCRF-CEM
[14] = system: U-251
[15] = system: DLD-1
[16] = system: SNB-19
[17] = system: KM-20L2
[18] = system: EKVX

SMILES | GI50 [1] | GI50 [2] | GI50 [3] | GI50 [4] | GI50 [5] | GI50 [6] | GI50 [7] | GI50 [8] | GI50 [9] | GI50 [10] | GI50 [11] | GI50 [12] | GI50 [13] | GI50 [14] | GI50 [15] | GI50 [16] | GI50 [17] | GI50 [18]
C/C=C/C1(C)/C(=N\O)C(C)(CCC)C(=O)N1O (configuration not stated) | > 100 µM (inactive) | > 100 µM (inactive) | > 100 µM (inactive) | > 100 µM (inactive) | > 100 µM (inactive) | > 100 µM (inactive) | > 100 µM | > 100 µM (inactive) | > 100 µM (inactive) | > 100 µM (inactive) | > 100 µM (inactive) | > 100 µM (inactive) | > 100 µM (inactive) | > 100 µM (inactive) | > 100 µM (inactive) | > 100 µM (inactive) | > 100 µM (inactive) | > 100 µM (inactive)
Nc1nc(Cl)cc(NCCCCCCNc2cc(Cl)nc(N)n2)n1 | – | > 100 µM (inactive) | 20.8 µM (inactive) | 48.2 µM (inactive) | > 100 µM (inactive) | 59.6 µM (inactive) | 78.9 µM | 27.7 µM (inactive) | > 100 µM (inactive) | > 100 µM (inactive) | 28.1 µM (inactive) | 2.88 µM (inactive) | 59.6 µM (inactive) | > 100 µM (inactive) | > 100 µM (inactive) | > 100 µM (inactive) | > 100 µM (inactive) | > 100 µM (inactive)
O=C(CC(=O)C1CCOC1=O)C(=O)Nc1ccc(Cl)cc1Cl (configuration not stated) | > 100 µM (inactive) | > 100 µM (inactive) | > 100 µM (inactive) | – | > 100 µM (inactive) | > 100 µM (inactive) | > 100 µM | > 100 µM (inactive) | > 100 µM (inactive) | > 100 µM (inactive) | > 100 µM (inactive) | > 100 µM (inactive) | > 100 µM (inactive) | > 100 µM (inactive) | > 100 µM (inactive) | > 100 µM (inactive) | > 100 µM (inactive) | > 100 µM (inactive)
COc1ccccc1/C=C1\CCC(CCN2CCOCC2)C1=O (configuration not stated) | > 100 µM (inactive) | 90.4 µM (inactive) | 63.2 µM (inactive) | 48.1 µM (inactive) | 50.1 µM (inactive) | > 100 µM (inactive) | 91.8 µM | > 100 µM (inactive) | > 100 µM (inactive) | 93.1 µM (inactive) | > 100 µM (inactive) | 75.2 µM (inactive) | 38.7 µM (inactive) | – | > 100 µM (inactive) | > 100 µM (inactive) | 75 µM (inactive) | > 100 µM (inactive)
CCCNCCCC(NC(C)=O)C(=O)NCc1ccccc1 (configuration not stated) | > 100 µM (inactive) | > 100 µM (inactive) | > 100 µM (inactive) | > 100 µM (inactive) | > 100 µM (inactive) | > 100 µM (inactive) | > 100 µM | > 100 µM (inactive) | > 100 µM (inactive) | > 100 µM (inactive) | > 100 µM (inactive) | > 100 µM (inactive) | > 100 µM (inactive) | > 100 µM (inactive) | > 100 µM (inactive) | > 100 µM (inactive) | > 100 µM (inactive) | > 100 µM (inactive)
CCOP(=O)(OCC)OC1C=CC2CCC1C2 (configuration not stated) | > 100 µM (inactive) | > 100 µM (inactive) | > 100 µM (inactive) | > 100 µM (inactive) | > 100 µM (inactive) | > 100 µM (inactive) | 20.7 µM | > 100 µM (inactive) | > 100 µM (inactive) | > 100 µM (inactive) | > 100 µM (inactive) | > 100 µM (inactive) | > 100 µM (inactive) | > 100 µM (inactive) | > 100 µM (inactive) | > 100 µM (inactive) | > 100 µM (inactive) | > 100 µM (inactive)
NC(=O)N/N=C1/CCCC/C1=C\c1ccccc1 | > 100 µM (inactive) | 80.9 µM (inactive) | > 100 µM (inactive) | 36.6 µM (inactive) | > 100 µM (inactive) | > 100 µM (inactive) | > 100 µM | > 100 µM (inactive) | > 100 µM (inactive) | > 100 µM (inactive) | > 100 µM (inactive) | > 100 µM (inactive) | > 100 µM (inactive) | > 100 µM (inactive) | > 100 µM (inactive) | – | > 100 µM (inactive) | > 100 µM (inactive)
COc1cc2c(cc1OC)C(Cc1c3ccccc3cc3ccccc13)N(C)CC2 (configuration not stated) | 20.2 µM (inactive) | 13 µM (inactive) | 18 µM (inactive) | 16 µM (inactive) | 13.5 µM (inactive) | 18.9 µM (inactive) | 30.2 µM | 25.1 µM (inactive) | – | – | 17.4 µM (inactive) | – | 18.8 µM (inactive) | 16.9 µM (inactive) | 32.1 µM (inactive) | 22.2 µM (inactive) | 15.2 µM (inactive) | 25.6 µM (inactive)
Cc1cc(NS(=O)(=O)c2ccc(NC(=O)c3cccc4c(Nc5ccc(S(=O)(=O)Nc6cc(C)on6)cc5)c5ccccc5nc34)cc2)no1 | 40.3 µM (inactive) | 38.7 µM (inactive) | 30.5 µM (inactive) | 34.1 µM (inactive) | > 100 µM (inactive) | > 100 µM (inactive) | > 100 µM | 70.1 µM (inactive) | 72.6 µM (inactive) | – | > 100 µM (inactive) | > 100 µM (inactive) | 35.6 µM (inactive) | 30.5 µM (inactive) | > 100 µM (inactive) | 32.7 µM (inactive) | > 100 µM (inactive) | > 100 µM (inactive)
CC1=NN(C(=O)c2ccc(Cl)cc2)C(=O)/C1=C/c1ccco1 | > 100 µM (inactive) | > 100 µM (inactive) | > 100 µM (inactive) | > 100 µM (inactive) | > 100 µM (inactive) | > 100 µM (inactive) | > 100 µM | > 100 µM (inactive) | > 100 µM (inactive) | > 100 µM (inactive) | > 100 µM (inactive) | > 100 µM (inactive) | > 100 µM (inactive) | > 100 µM (inactive) | > 100 µM (inactive) | > 100 µM (inactive) | > 100 µM (inactive) | > 100 µM (inactive)
COc1ccc(C2CCC(Cl)(OC)CC2C=O)cc1 (configuration not stated) | 21 µM (inactive) | 80.4 µM (inactive) | 13.3 µM (inactive) | 47.5 µM (inactive) | 50.7 µM (inactive) | > 100 µM (inactive) | 49.4 µM | 39.8 µM (inactive) | 40.1 µM (inactive) | > 100 µM (inactive) | 46.1 µM (inactive) | 95.9 µM (inactive) | 29.7 µM (inactive) | 43.9 µM (inactive) | 91.4 µM (inactive) | 73.6 µM (inactive) | 67.1 µM (inactive) | > 100 µM (inactive)
Cc1ccccc1CN1CC=c2ccccc2=N1 | > 100 µM (inactive) | 50.1 µM (inactive) | > 100 µM (inactive) | – | > 100 µM (inactive) | > 100 µM (inactive) | > 100 µM | > 100 µM (inactive) | > 100 µM (inactive) | > 100 µM (inactive) | > 100 µM (inactive) | > 100 µM (inactive) | > 100 µM (inactive) | > 100 µM (inactive) | > 100 µM (inactive) | > 100 µM (inactive) | > 100 µM (inactive) | 93.5 µM (inactive)
CC(C)(C)N/N=N/c1cn(C2OC(CO)C(O)C2O)c(=O)[nH]c1=O (configuration not stated) | > 100 µM (inactive) | > 100 µM (inactive) | 41.7 µM (inactive) | > 100 µM (inactive) | > 100 µM (inactive) | > 100 µM (inactive) | 43.5 µM | > 100 µM (inactive) | > 100 µM (inactive) | > 100 µM (inactive) | > 100 µM (inactive) | > 100 µM (inactive) | 26.2 µM (inactive) | – | 43.3 µM (inactive) | > 100 µM (inactive) | > 100 µM (inactive) | > 100 µM (inactive)
O=C1C=CC(=CC=C2C=CN(CCCCCCCCCCC(=O)NCCCCCCCCCCCC(=O)O)C=C2)C=C1 | > 100 µM (inactive) | > 100 µM (inactive) | > 100 µM (inactive) | > 100 µM (inactive) | > 100 µM (inactive) | > 100 µM (inactive) | > 100 µM | > 100 µM (inactive) | > 100 µM (inactive) | > 100 µM (inactive) | > 100 µM (inactive) | > 100 µM (inactive) | > 100 µM (inactive) | > 100 µM (inactive) | > 100 µM (inactive) | > 100 µM (inactive) | > 100 µM (inactive) | > 100 µM (inactive)
CN1CCS(=O)(=O)NC(Cc2ccccc2)C(=O)N2CCCC2C1=O (configuration not stated) | > 100 µM (inactive) | > 100 µM (inactive) | > 100 µM (inactive) | > 100 µM (inactive) | > 100 µM (inactive) | > 100 µM (inactive) | > 100 µM | > 100 µM (inactive) | – | > 100 µM (inactive) | > 100 µM (inactive) | > 100 µM (inactive) | > 100 µM (inactive) | > 100 µM (inactive) | > 100 µM (inactive) | > 100 µM (inactive) | > 100 µM (inactive) | > 100 µM (inactive)
COc1cc(CCc2ccc(OC(C)=O)cc2)cc(OC)c1OC | > 100 µM (inactive) | 73.3 µM (inactive) | 92 µM (inactive) | > 100 µM (inactive) | > 100 µM (inactive) | > 100 µM (inactive) | > 100 µM | > 100 µM (inactive) | > 100 µM (inactive) | > 100 µM (inactive) | > 100 µM (inactive) | 79.4 µM (inactive) | > 100 µM (inactive) | > 100 µM (inactive) | > 100 µM (inactive) | > 100 µM (inactive) | > 100 µM (inactive) | > 100 µM (inactive)
